Earlier results on 14 compounds are cited in US20220273701A1, “TREATMENT FOR REDUCING ADVERSE EVENTS INCLUDING CHEMOTHERAPY DISCOMFORT AND OTHER CONDITIONS” (priority 2019, published 2022).

As to `C[C@H](N)C(=O)O` [Alanine/Alanine anion, Alanine], the “pKa of Acid (or pH of 1:1 mixture)” value is 9.69. `N[C@@H](CS)C(=O)O` [Cysteine/Cysteine anion, Cysteine]: the “pKa of Acid (or pH of 1:1 mixture)” value is on record as 10.78. For the compound `NCC(=O)O` [Glycine/Glycine anion, Glycine], the “pKa of Acid (or pH of 1:1 mixture)” value is on record as 9.60. Turning to `CC[C@H](C)[C@H](N)C(=O)O` [Isoleucine/Isoleucine anion, Isoleucine], the “pKa of Acid (or pH of 1:1 mixture)” value is given as 9.60.

Turning to `O=S(=O)(O)CCNC1CCCCC1` [N-Cyclohexyl-2-aminoethanesulfonic acid], the “pKa of Acid (or pH of 1:1 mixture)” value is given as 9.3.

Regarding `O=S(=O)(O)CCCNC1CCCCC1` [N-cyclohexyl-3-aminopropanesulfonic acid], the “pKa of Acid (or pH of 1:1 mixture)” value was 10.4. `O=C(O)[C@@H]1CCCN1` [Proline/Proline anion, Proline]: the “pKa of Acid (or pH of 1:1 mixture)” value is given as 10.60. Consider `CC(C)[C@H](N)C(=O)O` [Valine/Valine anion, Valine], for which the “pKa of Acid (or pH of 1:1 mixture)” value is reported as 9.62. On to `O=S(=O)(O)CCCNC(CO)(CO)CO` [tris(hydroxymethyl)methylamino]propanesulfonic acid], for which the “pKa of Acid (or pH of 1:1 mixture)” value is 8.55.

As to “Arginine anion [Arginine anion/Arginine dianion]”, the “pKa of Acid (or pH of 1:1 mixture)” value is 12.48. Take Boric Acid [Boric Acid/Borate]: the “pKa of Acid (or pH of 1:1 mixture)” value is 9.0.

As to “Lysine anion [Lysine anion/Lysine dianion]”, the “pKa of Acid (or pH of 1:1 mixture)” value was 10.79. As for Tris(hydroxymethyl)aminomethane, the “pKa of Acid (or pH of 1:1 mixture)” value is listed as 8.2.

Turning to “Tyrosine anion [Tyrosine anion/Tyrosine dianion]”, the “pKa of Acid (or pH of 1:1 mixture)” value is recorded as 10.07.
